Test results as given in US20240101570A1 (AMGEN INC., priority 2020, published 2024).

Experiments:
[1] = system: HCT116 MTAP null cells; experiment: HCT116 MTAP null cell proliferation / viability (CellTiter-Glo, 6 days); format: cell-based; details: HCT116-MTAP null, 144 h, HCT116 MTAP null cells, 6 days, CellTiter-Glo; read-out: HCT-116 MTAP null IC50
Procedure, shortened: (§1)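 CellTiter-Glo luminescence, 6-day exposure, RPMI 1640 + 10% FBS. Dosing: 1:3 series (8-9 pts, top 1 or 10 μM) or 1:2 series (22 pts, top 10 or 50 μM), DMSO control. IC50 = 50% of control via curve fit.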

[2] = system: HCT116 WT cells; experiment: HCT116 WT cell proliferation / viability (CellTiter-Glo, 6 days); format: cell-based; details: Homo sapiens, HCT-116, 144 h, HCT116 WT cells, 6 days, CellTiter-Glo; read-out: HCT-116 WT IC50
Procedure, shortened: as §1

Row | Structure (SMILES) | IC50 [1] [nM] | IC50 [2] [nM]
1 | C[C@@H](c1ncc(F)cn1)N(CCOC(F)(F)F)C(=O)c1cc2c3c(c(N)nc2cc1F)COC3 (single isomer, unassigned) [Example 833] | 2560 | 27200
2 | C[C@H](c1ncc(F)cn1)N(CCOC(F)(F)F)C(=O)c1cc2c3c(c(N)nc2cc1F)COC3 (single isomer, unassigned) [Example 834] | 817 | 19700
3 | CCN(C(=O)c1ccc2nc(N)c3c(c2c1)COC3)[C@@H](C)c1ccc(C#N)cc1 (single isomer, unassigned) [Example 836] | 3640 | 38700
4 | CCN(C(=O)c1ccc2nc(N)c3c(c2c1)COC3)[C@@H](C)c1ccc(C#N)cn1 (single isomer, unassigned) [Example 837] | 7080 | > 50000
5 | CC(C)N(C(=O)c1ccc2nc(N)c3c(c2c1)CO[C@@H]3C)[C@H](C)c1ccc(C(F)(F)F)cn1 (single isomer, unassigned) [Example 839] | 213 | 9520
6 | CC(C)N(C(=O)c1ccc2nc(N)c3c(c2c1)CO[C@@H]3C)[C@@H](C)c1ccc(C(F)(F)F)cn1 (single isomer, unassigned) [Example 840] | 638 | 23000
7 | CC(C)N(C(=O)c1cc2c3c(c(N)nc2cc1F)COC3)[C@@H](C)c1ccc(C(F)(F)F)cn1 (single isomer, unassigned) [Example 841] | 613 | 11600
8 | CCN(C(=O)c1ccc2nc(N)c3c(c2c1)CO[C@@H]3C)[C@@H](C)c1ccc(C#N)cn1 (single isomer, unassigned) [Example 843] | 3360 | > 50000
9 | CC(C)N(C(=O)c1cc2c3c(c(N)nc2cc1Cl)COC3)[C@@H](C)c1ccc(C(F)(F)F)cn1 (single isomer, unassigned) [Example 846] | 212 | 3940
10 | CC(C)N(C(=O)c1cc2c3c(c(N)nc2cn1)COC3)[C@@H](C)c1ccc(C(F)(F)F)cn1 (single isomer, unassigned) [Example 847] | 1860 | 36000
11 | CC(C)N(C(=O)c1cc2c3c(c(N)nc2cn1)COC3)[C@H](C)c1ccc(C(F)(F)F)cn1 (single isomer, unassigned) [Example 848] | 453 | 11400
12 | CC[C@H](c1ccc(C(F)(F)F)cn1)N(C)C(=O)c1cc2c3c(c(N)nc2cn1)COC3 (single isomer, unassigned) [Example 849] | 879 | 24400
13 | CC[C@@H](c1ccc(C(F)(F)F)cn1)N(C)C(=O)c1cc2c3c(c(N)nc2cn1)COC3 (single isomer, unassigned) [Example 850] | 8340 | > 50000
14 | C[C@H]1OCc2c1c(N)nc1ccc(C(=O)N(C)[C@@H](C)c3ccc(C(F)(F)F)cn3)cc21 (single isomer, unassigned) [Example 852] | 3160 | > 50000
15 | C[C@H]1OCc2c1c(N)nc1cc(F)c(C(=O)N(C)[C@@H](C)c3ccc(C(F)(F)F)cc3)cc21 (single isomer, unassigned) [Example 859] | 583 | 17500
16 | C[C@H](c1ncc(C(F)(F)F)cc1F)N(C)C(=O)c1cc2c(cn1)nc(N)c1c2cnn1C (single isomer, unassigned) [Example 861] | 205 | 13600
17 | C[C@@H](c1ncc(C(F)(F)F)cc1F)N(C)C(=O)c1cc2c(cc1F)nc(N)c1cnn(C)c12 (single isomer, unassigned) [Example 864] | 618 | 22700
18 | COc1cc(C(F)(F)F)cnc1[C@@H](C)N(C)C(=O)c1cc2c(cc1F)nc(N)c1c2cnn1C (single isomer, unassigned) [Example 866] | 309 | 11300
19 | C[C@@H](c1ccc(S(F)(F)(F)(F)F)cc1)N(C)C(=O)c1cc2c(cc1F)nc(N)c1cnn(C)c12 (single isomer, unassigned) [Example 869] | 627 | 8430
20 | C[C@@H](c1ccc(F)cn1)N(C)C(=O)c1cc2c(cc1F)nc(N)c1cnn(C)c12 (single isomer, unassigned) [Example 874] | 929 | 36000
21 | CCN(C(=O)c1cc2c(cc1F)nc(N)c1cnn(C)c12)[C@@H](C)c1ccc(F)cn1 (single isomer, unassigned) [Example 876] | 334 | 30400
22 | C[C@@H](c1ccc(C(F)(F)F)nn1)N(C(=O)c1cc2c(cc1F)nc(N)c1cnn(C)c12)C1CC1 (single isomer, unassigned) [Example 877] | 756 | 44100
23 | C[C@H](c1ccc(C(F)(F)F)nn1)N(C)C(=O)c1cc2c(cc1C(F)(F)F)nc(N)c1cnn(C)c12 (single isomer, unassigned) [Example 879] | 181 | 12300

Now those with a lower IC50 [1], led by results:

Row | IC50 [1] [nM] | IC50 [2] [nM] | Structure (SMILES)
24 | 167 | 14400 | C[C@H](c1ncc(F)cc1F)N(C)C(=O)c1cc2c(cc1F)nc(N)c1cnn(C)c12 (single isomer, unassigned) [Example 853]
25 | 164 | 28800 | C[C@H](c1ccc(C(F)(F)F)nn1)N(C)C(=O)c1ccc2nc(N)c3cnn(C)c3c2c1 (single isomer, unassigned) [Example 855]
26 | 161 | 8590 | CCN(C(=O)c1ccc2nc(N)c3c(c2c1)COC3)[C@H](C)c1ccc(C#N)cn1 (single isomer, unassigned) [Example 838]
27 | 157 | 7840 | COc1cc(C(F)(F)F)cnc1[C@@H](C)N(C)C(=O)c1cc2c(cc1F)nc(N)c1cnn(C)c12 (single isomer, unassigned) [Example 867]
28 | 126 | 3760 | CCN(C(=O)c1ccc2nc(N)c3c(c2c1)COC3)[C@H](C)c1ccc(C#N)cc1 (single isomer, unassigned) [Example 835]
29 | 115 | 3280 | CC(C)N(C(=O)c1cc2c3c(c(N)nc2cc1F)COC3)[C@H](C)c1ccc(C(F)(F)F)cn1 (single isomer, unassigned) [Example 842]
30 | 105 | 6220 | CCN(C(=O)c1ccc2nc(N)c3c(c2c1)CO[C@@H]3C)[C@H](C)c1ccc(C#N)cn1 (single isomer, unassigned) [Example 844]
31 | 105 | 2240 | CC(C)N(C(=O)c1cc2c3c(c(N)nc2cc1Cl)COC3)[C@H](C)c1ccc(C(F)(F)F)cn1 (single isomer, unassigned) [Example 845]
32 | 87 | 8480 | C[C@H](c1ccc(C(F)(F)F)nn1)N(C)C(=O)c1ccc2nc(N)c3c(c2c1)CO[C@@H]3C (single isomer, unassigned) [Example 856]
33 | 86 | 3280 | C[C@H](c1ccc(C(F)(F)F)cn1)N(C)C(=O)c1cc2c3c(c(N)nc2cn1)COC3 (single isomer, unassigned) [Example 854]
34 | 75 | 4500 | CC[C@@H](c1cncnc1)N(Cc1ccc(S(F)(F)(F)(F)F)cc1)C(=O)c1cc2c(cn1)nc(N)c1cnn(C)c12 (single isomer, unassigned) [Example 872]
35 | 66 | 7320 | C[C@H](c1ccc(F)cn1)N(C)C(=O)c1cc2c(cc1F)nc(N)c1cnn(C)c12 (single isomer, unassigned) [Example 873]
36 | 59 | 2810 | C[C@H](c1ncc(C(F)(F)F)cc1F)N(C)C(=O)c1cc2c(cc1F)nc(N)c1c2cnn1C (single isomer, unassigned) [Example 865]
37 | 59 | 3840 | C[C@H](c1ccc(S(F)(F)(F)(F)F)cc1)N(C)C(=O)c1cc2c(cn1)nc(N)c1c2cnn1C (single isomer, unassigned) [Example 868]
38 | 47 | 4000 | C[C@H](c1ccc(C(F)(F)F)cn1)N(C)C(=O)c1ccc2nc(N)c3c(c2c1)CO[C@@H]3C (single isomer, unassigned) [Example 851]
39 | 41 | 3330 | C[C@H](c1ccc(C(F)(F)F)nn1)N(C)C(=O)c1cc2c3c(c(N)nc2cc1F)COC3 (single isomer, unassigned) [Example 858]
40 | 31 | 2200 | C[C@H](c1ccc(C(F)(F)F)nn1)N(C)C(=O)c1cc2c3c(c(N)nc2cc1F)[C@@H](C)OC3 (single isomer, unassigned) [Example 862]
41 | 26 | 1090 | C[C@H](c1ccc(C(F)(F)F)cc1)N(C)C(=O)c1cc2c3c(c(N)nc2cc1F)COC3 (single isomer, unassigned) [Example 857]
42 | 25 | 78 | CC[C@H](c1cncnc1)N(Cc1ccc(S(F)(F)(F)(F)F)cc1)C(=O)c1cc2c(cn1)nc(N)c1cnn(C)c12 (single isomer, unassigned) [Example 871]
43 | 25 | 1420 | CCN(C(=O)c1cc2c(cc1F)nc(N)c1cnn(C)c12)[C@H](C)c1ccc(F)cn1 (single isomer, unassigned) [Example 875]
44 | 17 | 849 | C[C@H](c1ccc(C(F)(F)F)cc1)N(C)C(=O)c1cc2c3c(c(N)nc2cc1F)[C@@H](C)OC3 (single isomer, unassigned) [Example 860]
45 | 10 | 709 | C[C@H](c1ccc(C(F)(F)F)nn1)N(C(=O)c1cc2c(cc1F)nc(N)c1cnn(C)c12)C1CC1 (single isomer, unassigned) [Example 878]
46 | 7 | 340 | C[C@H](c1ncc(C(F)(F)F)cc1F)N(C)C(=O)c1cc2c(cc1F)nc(N)c1cnn(C)c12 (single isomer, unassigned) [Example 863]
47 | 7 | 162 | C[C@H](c1ccc(S(F)(F)(F)(F)F)cc1)N(C)C(=O)c1cc2c(cc1F)nc(N)c1cnn(C)c12 (single isomer, unassigned) [Example 870]
